Experimental data as given in US20150374718A1, “Zhankuic Acid A and Analogs thereof and Their Use as an Anti-Inflammatory Agent” (National Cheng Kung University, priority 2014, published 2015).

How the values were obtained:
[1] = test system: LPS-induced TNF-α and IL-6 production; experiment: ELISA of cytokines in LPS-treated RAW264.7 cells; type: cell-based, murine; details: ZAA 1 h, LPS 0.25 or 0.5 μg/mL
[2] = test system: S. choleraesuis-induced TNF-α and IL-6 production; experiment: ELISA of cytokines in S. choleraesuis-treated RAW264.7 cells; type: cell-based, murine; details: ZAA 1 h, 2×10^3 CFU/well
S. choleraesuis = experiment: S. choleraesuis-induced diarrhea model in mice
Description: (A and B) C57BL/6 mice that had been pretreated intraperitoneally with ZAA (2 or 10 mg/kg) or the vehicle for 30 min were orally administered with kanamycin-resistant S. choleraesuis (2×10^9 CFU/mouse). Diarrhea was scored after 2 days on a 0-3 scale (0=normal pellets, 1=slightly loose feces, 2=loose feces, and 3=watery diarrhea) (A). Body weight was recorded every 2 days for 2 weeks (n=9-12; **p<0.01 and ***p<0.001) (B). (C) Fecal samples were collected at 24-h intervals until 96 h after S. choleraesuis infection and assessed for viable bacterial CFU counts (n=10; **p<0.01 and ***p<0.001).
The pEGFP-N1 (ΔEGFP)-transformed S. choleraesuis (2×10^9 CFU/mouse) was orally administered to mice with or without oral pretreatment of ZAA (2 or 10 mg/kg). […] Fecal samples were collected at 24-h intervals until 96 h after S. choleraesuis infection. S. choleraesuis in the feces was quantified by plating serial dilutions of fecal samples on kanamycin-containing agar plates and counting colonies after overnight incubation at 37° C. Mice were monitored daily for symptoms of diarrhea and loss of body weight. Diarrhea was defined according to a diarrhea score of 0-3 (0=normal pellets, 1=slightly loose feces, 2=loose feces, and 3=watery diarrhea) as previously described (21).

[3] = test system: NF-κB, MAPK, and Akt signaling pathways; experiment: Immunoblot of NF-κB, MAPK and Akt signaling in LPS-stimulated RAW264.7 cells; type: cell-based, murine; details: ZAA 1 h, then LPS 30 min
Description: FIG. 1. ZAA inhibits the production of inflammation-related molecules in LPS- and IFN-γ-stimulated murine macrophages. […] Total cell lysates were subjected to immunoblotting for detecting COX2 and iNOS. Relative expression levels of COX2 and iNOS protein were quantified by densitometric analysis with ImageJ software and normalized according to the β-actin reference band. […] The presence of nitrite in the culture medium was analyzed by the Griess assay and used as an indication of NO levels (n=4; *p<0.05 and ***p<0.001 vs. LPS- or IFN-γ-induced cells). (C) Raw264.7 cells were cotransfected with pNFKB-Luc and pβ-actin-LacZ plasmids. […] Total cell lysates were harvested, and their luciferase activities were determined and normalized on the basis of β-galactosidase activities. […] Numbers below the blots in D and those shown in the table below the blots in E represent the relative expression levels quantified by densitometric analysis with ImageJ software and normalized according to the β-actin reference bands. […]
Cell lysates were analyzed by immunoblotting with primary antibodies against pIKKα/β, IkBα, pNF-κBp65, pERK, ERK, pJNK, JNK, pAkt, Akt, pp38, p38, and β-actin, followed by appropriate secondary antibodies Immunoreactive protein bands were detected using an enhanced chemiluminescence (ECL) kit (Pierce Biotechnology, Rockford, Ill.). […]

## C=C(CC[C@@H](C)[C@H]1CC[C@H]2C3=C(C(=O)C[C@]12C)[C@@]1(C)CCC(=O)[C@@H](C)[C@@H]1CC3=O)C(C)C(=O)O (some centres unmarked) [No. 1, Zhankuic acid A]
[1]; supernatant after 4 h
  LPS-induced TNF-α production: inhibited
[1]; supernatant after 6 h
  LPS-induced IL-6 production: inhibited
[2]; 4 h
  S. choleraesuis-induced TNF-α production: effectively suppressed
[2]; 6 h
  S. choleraesuis-induced IL-6 production: effectively suppressed
S. choleraesuis; 96 h after bacterial infection, ZAA 10 mg/kg
  fecal bacterial level: undetectable
S. choleraesuis; C57BL/6 mice, ZAA 10 mg/kg
  body weight loss: dramatically attenuated
  time to return to normal body weight: ≤ 2 weeks
S. choleraesuis; C57BL/6 mice, ZAA 2 or 10 mg/kg, 24-96 h, dose- and time-dependent
  fecal bacterial load: dramatically reduced
S. choleraesuis; C57BL/6 mice, ZAA 2 or 10 mg/kg, scored after 2 days, 0-3 scale
  diarrhea score: reduced
[3]
  LPS-induced phosphorylation of ERK, JNK, p38, and Akt: inhibited
  LPS-stimulated NF-κBp65 phosphorylation: significantly prevented
